Holding throughout (assay): NCI-60 cell line screen, 48 h
In assay [1] the test system is SF-539.
Assay [2] has as its system A549.
Assay [3] relates to OVCAR-8.
Assay [4] relates to MDA-MB-231.
In assay [5] the test system is Malme-3M.
Assay [6] has as its system SR.
Assay [7] has as its system EKVX.
Assay [8] concerns HCT-116.
The test system of assay [9] is M14.
Assay [10] has as its system CAKI-1.
Assay [11] has as its system LOX IMVI.
Assay [12] concerns SK-MEL-2.
The subject of assay [13] is 786-0.
The subject of assay [14] is MCF7.
The subject of assay [15] is SK-MEL-28.
Assay [16] has as its system MDA-N.
In assay [17] the test system is NCI/ADR-RES.
Assay [18] has as its system UO-31.
The test system of assay [19] is UACC-62.
The test system of assay [20] is T47D.

Consider eight compounds from ChEMBL document CHEMBL1201862, “PubChem BioAssay data set” (2004).

Molecules are shown by their SMILES.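 Tested at 5 concentrations; 48 h exposure; 96-well plates; endpoints linearly interpolated, else capped at highest concentration. At the GI50, growth is halved.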 Calls of active or inactive are those of the source. Cut-off read from the data, not from the text of the source: active = GI50 up to about 1.1 µM and inactive = higher. Where only a bound is given, the exact number is not on record here.

For `CC(=O)c1cc2ccccc2oc1=O` [3-ACETYLCOUMARIN], the GI50 in [1], in assay [2], in assay [3], in assay [4], in assay [5] and in assay [6] was > 100 µM (inactive) in each case. For the same compound, the GI50 in [7], in assay [8], in [9], in assay [10], in assay [11] and in assay [12] was > 100 µM (inactive) throughout. Also, the GI50 in assay [13] was > 100 µM (inactive); in assay [14], 36.2 µM (inactive); in assay [15], > 100 µM (inactive); in assay [16], > 100 µM (inactive); in [17], > 100 µM (inactive); in [18] it was 92.3 µM (inactive).

`C[C@]12C=CC(=O)C=C1CC[C@@H]1[C@@H]2CC[C@@]2(C)[C@H]1CC[C@]2(O)C(N)=O`: the GI50 in assay [1], in assay [2], in [3], in assay [4], in [5] and in assay [6] was > 100 µM (inactive) each time. The GI50 in [7], in assay [19], in [8], in assay [9], in assay [11] and in assay [12] was > 100 µM (inactive) throughout. The GI50 in assay [13], in [15], in assay [16], in assay [17], in assay [18] and in [20] was > 100 µM (inactive) throughout.

`CCCCOCn1c(=O)[nH]c(=O)c2cc(Br)ccc21`: the GI50 was > 100 µM (inactive) in assay [1]; 48.2 µM (inactive) in assay [2]; 31.1 µM (inactive) in [3]; 33.8 µM (inactive) in assay [4]; 46.2 µM (inactive) in [6]; 22.6 µM (inactive) in assay [7]. The GI50 in assay [19] was 42.5 µM (inactive); in [8], 38.5 µM (inactive); in [9], 87.1 µM (inactive); in assay [10], 20.8 µM (inactive); in assay [11] it was 58.5 µM (inactive); in assay [12] it was 40.2 µM (inactive). In addition, the GI50 in [13] was 53.3 µM (inactive); in [14], 42.5 µM (inactive); in assay [15] it was > 100 µM (inactive); in assay [16] it was 55.2 µM (inactive); in [17] it was 19.1 µM (inactive); in assay [18], 18.5 µM (inactive).

With `C(=N\c1cc2cc(Sc3ccccc3)ccc2[nH]1)/c1ccccc1`, the GI50 in [1] is 0.741 µM (active); in assay [2], 0.0818 µM (active); in assay [3], > 12.5 µM (inactive); in [5], > 12.5 µM (inactive); in [6] it was 1.32 µM (inactive); in [7], > 12.5 µM (inactive). In addition, the GI50 is 7.11 µM (inactive) in assay [19]; > 12.5 µM (inactive) in assay [8]; > 12.5 µM (inactive) in assay [9]; > 12.5 µM (inactive) in assay [10]; 5.85 µM (inactive) in assay [11]; > 12.5 µM (inactive) in [13]. The GI50 was > 12.5 µM (inactive) in assay [14]; > 12.5 µM (inactive) in assay [15]; 4.91 µM (inactive) in [16]; > 12.5 µM (inactive) in [17]; > 12.5 µM (inactive) in assay [20].

`O=C(COc1cc(=O)oc2ccccc12)c1ccccc1`: the GI50 was 21.5 µM (inactive) in assay [1]; 97.3 µM (inactive) in assay [2]; 33 µM (inactive) in [3]; 83.8 µM (inactive) in assay [4]; > 100 µM (inactive) in assay [5]; > 100 µM (inactive) in assay [6]. Moreover, the GI50 is > 100 µM (inactive) in [7]; 16.7 µM (inactive) in assay [19]; 17.9 µM (inactive) in assay [8]; 42 µM (inactive) in assay [9]; 4.69 µM (inactive) in assay [10]; 41.1 µM (inactive) in assay [11]. Also, the GI50 in [12] is 30.7 µM (inactive); in assay [13], 30.2 µM (inactive); in [14], > 100 µM (inactive); in assay [15] it was 32.3 µM (inactive); in assay [16], 47 µM (inactive); in assay [18], > 10 µM (inactive). Further, the GI50 in assay [20] was 25.4 µM (inactive).

As for `COc1ccc(C2=Nc3cc(C)c(C)cc3NC(c3ccccc3)C2)cc1` (stereo unspecified), the GI50 was > 100 µM (inactive) in assay [1]; 44.7 µM (inactive) in [2]; > 100 µM (inactive) in assay [3]; > 100 µM (inactive) in assay [4]; 40.5 µM (inactive) in assay [5]; 4.86 µM (inactive) in [6]. Also, the GI50 in [7] is > 100 µM (inactive); in assay [19], > 100 µM (inactive); in assay [8], 27 µM (inactive); in assay [9], > 100 µM (inactive); in assay [10], > 100 µM (inactive); in assay [11], 28.7 µM (inactive). Besides, the GI50 in assay [12] is > 100 µM (inactive); in assay [13] it was > 100 µM (inactive); in assay [14], 6.46 µM (inactive); in assay [15] it was > 100 µM (inactive); in assay [17], 43.4 µM (inactive); in [18] it was 57 µM (inactive). The GI50 in assay [20] is 21.7 µM (inactive).

Consider `CCN(CC)C(=O)CCNC(C)Cc1c[nH]c2ccccc12` (stereo unspecified), for which the GI50 in assay [1], in assay [2], in assay [3], in assay [4], in assay [5] and in [6] was > 100 µM (inactive) throughout. The GI50 in assay [7], in assay [19], in assay [8], in assay [9], in [10] and in assay [11] was > 100 µM (inactive) throughout. The GI50 in assay [12], in [13], in assay [15], in assay [16], in assay [17] and in assay [18] was > 100 µM (inactive) throughout. In addition, the GI50 in assay [20] was > 100 µM (inactive).

Regarding `Oc1ccc2ccccc2c1/N=N/c1ccc(Cl)cc1`, the GI50 in [2] was > 100 µM (inactive); in assay [3], > 100 µM (inactive); in assay [4], 26.9 µM (inactive); in assay [5] it was > 100 µM (inactive); in assay [6], 39.5 µM (inactive); in assay [7], > 100 µM (inactive). In addition, the GI50 in [19] is > 100 µM (inactive); in assay [8] it was 51.9 µM (inactive); in assay [9], > 100 µM (inactive); in assay [10] it was > 100 µM (inactive); in assay [11], 24.8 µM (inactive); in [12] it was > 100 µM (inactive). In addition, the GI50 was 34.6 µM (inactive) in [13]; > 100 µM (inactive) in assay [15]; > 100 µM (inactive) in [16]; > 100 µM (inactive) in assay [17]; > 100 µM (inactive) in [18]; > 100 µM (inactive) in assay [20].
